Assay results as given in PubChem BioAssay AID179 (DTP/NCI, 2004).
Calls of active or inactive are those of the source.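 Rule for the calls: active = compounds giving half or more protection of infected cells from virus-caused growth loss, again on retest; inactive = the rest.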 Where a SMILES comes first, the peptide text is derived from it.

Tested on: CEM cells HIV-1 protection, formazan growth assay
Assay: NCI AIDS Antiviral Assay
Details: for IC50: measured here: growth of uninfected CEM cells
In short: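 Soluble formazan readout of cell growth; CEM cells ± HIV-1; 5 drug concs. ≥50% protection → retest; ≥50% again = moderately active; reproducible 100% = confirmed active.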

**Q.** Cc1c(-c2cnccn2)ssc1=S was tested. Which EC50 did it give?
**A.** > 200 µM

**Q.** What about the IC50 of the same molecule?
**A.** 102 µM

**Q.** For CS(=O)(=O)N(N(CCCl)S(=O)(=O)c1ccccc1)S(C)(=O)=O, which EC50 is on record?
**A.** > 126 µM

**Q.** What about the IC50 of the same molecule?
**A.** 79.4 µM

**Q.** Which results are given for CN1C(=O)C(O)(CC(=O)c2ccccc2)c2ccccc21 (stereo unspecified)?
**A.** EC50: > 200 µM; IC50: 35.5 µM

**Q.** How did the EC50 turn out when O=C(Cc1ccccc1)N/N=C(/c1nc2ccc([N+](=O)[O-])cc2[nH]c1=O)C(O)c1ccccc1Cl (stereo unspecified) was run?
**A.** > 72.4 µM

**Q.** And the IC50?
**A.** > 72.4 µM

**Q.** With O=c1cc(CO)oc(C(O)c2ccccc2)c1O (stereo unspecified) as the molecule, how does the EC50 read?
**A.** > 200 µM

**Q.** And the IC50?
**A.** > 200 µM

**Q.** Which EC50 does the source give for CCOS(=O)(=O)c1ccc(-c2c3nc(c(-c4ccc(S(=O)(=O)OCC)cc4)c4ccc([nH]4)c(-c4ccc(S(=O)(=O)OCC)cc4)c4nc(c(-c5ccc(S(=O)(=O)OCC)cc5)c5ccc2[nH]5)C=C4)C=C3)cc1 here?
**A.** > 100 µM

**Q.** What about the IC50 of the same molecule?
**A.** > 100 µM

**Q.** For CC(CN)OC12CC3CC(CC(C3)C1)C2 (stereo unspecified), which EC50 is on record?
**A.** > 200 µM

**Q.** What about the IC50 of the same molecule?
**A.** 105 µM

**Q.** Which results are given for N=C(N)SCc1ccc2c(c1)Sc1ccccc1O2?
**A.** EC50: > 200 µM; IC50: 11.7 µM

**Q.** With COc1cccc(N=NN2CCCC2)c1 as the molecule, how does the EC50 read?
**A.** > 200 µM

**Q.** And the IC50?
**A.** 91.2 µM

**Q.** For CCOC(=O)CN=C1NNS(=O)(=O)c2ccccc21, which EC50 is on record?
**A.** > 200 µM

**Q.** And the IC50?
**A.** 110 µM

**Q.** For COc1cc(NS(C)(=O)=O)ccc1Nc1c2ccccc2nc2c1[nH]c1ccc(NC3OC(CO)C(O)C(O)C3O)cc12 (stereo unspecified), which EC50 is on record?
**A.** > 0.12 µM

**Q.** And the IC50?
**A.** 0.0468 µM

**Q.** Which EC50 does the source give for COc1cc(NC=O)c2c(c1)SC(c1ccccc1)C(=O)N2 (stereo unspecified) here?
**A.** > 200 µM

**Q.** What about the IC50 of the same molecule?
**A.** 56.2 µM

**Q.** CCOC(=O)c1[nH]n(-c2ccccc2)c(=O)c1/C=N/C(=S)Nc1ccccc1 was tested. Which EC50 did it give?
**A.** > 200 µM

**Q.** And the IC50?
**A.** 51.3 µM

**Q.** Which EC50 does the source give for N#C/C(=C\c1ccccc1)c1ccccc1[N+](=O)[O-] here?
**A.** > 200 µM

**Q.** What about the IC50 of the same molecule?
**A.** 12.6 µM

**Q.** With NC(=O)CNC(=O)c1ccccc1SC(=O)CCC[n+]1ccccc1 as the molecule, how does the EC50 read?
**A.** 1.17 µM

**Q.** What about the IC50 of the same molecule?
**A.** 25.7 µM

**Q.** With CCCCCCCCCCCCCCCC(=O)Nc1ccn(C2CCC(COP(=O)(O)O)O2)c(=O)n1 (stereo unspecified) as the molecule, how does the EC50 read?
**A.** 1.58 µM

**Q.** And the IC50?
**A.** 50.1 µM

**Q.** With CCOC(=O)/C(C#N)=C/c1cccc(C)c1 as the molecule, how does the EC50 read?
**A.** > 120 µM

**Q.** What about the IC50 of the same molecule?
**A.** > 120 µM

**Q.** Which results are given for Cc1ccc(S(=O)(=O)Nn2c(-c3ccccc3)c(C#N)c(-c3ccc(N(C)C)cc3)c(C#N)c2=O)cc1?
**A.** EC50: > 100 µM; IC50: 35.5 µM

**Q.** Which EC50 does the source give for COC(=O)[C@H](Cc1ccc(O)cc1)NC(=O)[C@H](Cc1ccc(O)cc1)NC(=O)OC(C)(C)C (HELM PEPTIDE1{[CC(C)(C)OC(=O)[*:2]].Y.Y.[CO[*:1]]}$$$$V2.0) here?
**A.** > 200 µM

**Q.** What about the IC50 of the same molecule?
**A.** 93.3 µM

**Q.** Which EC50 does the source give for COc1nc2ncc([C@@H](O)[C@H](O)CO)nc2c(=O)n1C here?
**A.** > 200 µM

**Q.** And the IC50?
**A.** > 200 µM

**Q.** Which results are given for CCCCC1OCCOC1C1COCCO1 (stereo unspecified)?
**A.** EC50: > 195 µM; IC50: > 195 µM

**Q.** Which EC50 does the source give for NCCCCNCCCNC(=O)c1csc(-c2nc(CCN)sc2Cl)n1 here?
**A.** > 302 µM

**Q.** What about the IC50 of the same molecule?
**A.** 18.6 µM

**Q.** Which outcome does the source give for C=C1C2CCCC1C1(S(C)(=O)=O)CCCCC21O (stereo unspecified) here?
**A.** inactive

**Q.** Which results are given for C/C(CN1C(=O)c2ccccc2C1=O)=N\NS(=O)(=O)c1ccc(F)cc1?
**A.** EC50: > 479 µM; IC50: > 479 µM

**Q.** For CC(C)=CCCC(O)C1CCC2C3CCC4CCCCC4(C)C3CCC12C (stereo unspecified), which EC50 is on record?
**A.** > 100 µM

**Q.** And the IC50?
**A.** 87.1 µM

**Q.** With COc1ccc(O)c(/C=N/NC(=S)N2CCCCC2)c1 as the molecule, how does the EC50 read?
**A.** > 200 µM

**Q.** And the IC50?
**A.** 8.13 µM

**Q.** Which EC50 does the source give for CC(NC(=O)c1ccccc1)C(=O)N(Cc1ccccc1)Cc1ccccc1 (stereo unspecified) here?
**A.** > 97.7 µM

**Q.** And the IC50?
**A.** > 97.7 µM

**Q.** What does the source list for CCOC(=O)C1Cc2cc(C)c(C)cc2N(C)C1=O (stereo unspecified)?
**A.** EC50: > 200 µM; IC50: > 200 µM

**Q.** What does the source list for CCC(=O)c1c(NOC2OCC(OC(C)=O)C(OC(C)=O)C2OC(C)=O)nc(OC)n(C)c1=O (stereo unspecified)?
**A.** EC50: > 53.7 µM; IC50: > 53.7 µM

**Q.** How did the EC50 turn out when Cc1ccc(NC(=O)CC/C(CC(=O)C(C)(C)C)=N/NC(=O)C[N+](C)(C)C)cc1C was run?
**A.** > 209 µM

**Q.** What about the IC50 of the same molecule?
**A.** > 209 µM

**Q.** How did the EC50 turn out when Cc1c(C)c(C)c(-n2c(=O)n(C)c(=O)n2-c2cc(C(C)(C)C)cc(C(C)(C)C)c2O)c(C)c1C was run?
**A.** > 200 µM

**Q.** What about the IC50 of the same molecule?
**A.** 13.2 µM

**Q.** Cc1cccc(C)c1N1C(=O)C(=O)C(c2nc3ccccc3s2)/C(=N/NC(=O)c2ccccc2O)C1=O (stereo unspecified) was tested. Which EC50 did it give?
**A.** > 251 µM

**Q.** And the IC50?
**A.** 6.61 µM

**Q.** COc1ccc(/C=C/c2ccnc3ccccc23)cc1 was tested. Which EC50 did it give?
**A.** 0.0631 µM

**Q.** What about the IC50 of the same molecule?
**A.** 14.1 µM

**Q.** Which results are given for O=C1CCC(=O)N1n1c(Cc2ccccc2)n[nH]c1=O?
**A.** EC50: > 200 µM; IC50: > 200 µM

**Q.** How did the EC50 turn out when CCN(CC)c1c(-c2c(N(CC)CC)c(OC(C)=O)c3sccn3c2=O)c(=O)n2ccsc2c1OC(C)=O was run?
**A.** > 200 µM

**Q.** And the IC50?
**A.** > 200 µM

**Q.** How did the EC50 turn out when CCCCc1c2c(nc3c1CCC/C3=C\c1ccccc1)C(=O)C(CN(C)C)CC2 (stereo unspecified) was run?
**A.** > 9.33 µM

**Q.** What about the IC50 of the same molecule?
**A.** > 9.33 µM

**Q.** With O=S(=O)(O)OC1CCCC1S(=O)(=O)O (stereo unspecified) as the molecule, how does the EC50 read?
**A.** > 200 µM

**Q.** What about the IC50 of the same molecule?
**A.** > 200 µM

**Q.** Which EC50 does the source give for CCOc1cnc([C@H]2CCC3[C@@H]4CC=C5C[C@@H](OC(=O)CCC(=O)O)CC[C@]5(C)C4CC[C@@]32C)s1 (stereo partly specified) here?
**A.** > 50.1 µM

**Q.** What about the IC50 of the same molecule?
**A.** 32.4 µM

**Q.** How did the EC50 turn out when CC(C)C1/C(=N/O)CC(c2ccccc2)N(N=O)C1c1ccccc1 (stereo unspecified) was run?
**A.** > 200 µM

**Q.** What about the IC50 of the same molecule?
**A.** 66.1 µM

**Q.** Which EC50 does the source give for CC(CN1CC(=O)NC(=O)C1)N1CC(=O)NC(=O)C1 (stereo unspecified) here?
**A.** > 468 µM

**Q.** And the IC50?
**A.** 40.7 µM

**Q.** For CCCNC(=O)N(C(C)C)S(=O)(=O)c1ccc(Cl)cc1, which outcome is on record?
**A.** inactive

**Q.** O=Nc1c(O)[nH]c(=S)[nH]c1=O was tested. Which EC50 did it give?
**A.** > 148 µM

**Q.** And the IC50?
**A.** 115 µM

**Q.** With CCCCCCCCCCCCC/C=C/C(O)C(CO)NC(=O)CCCCC (stereo unspecified) as the molecule, how does the outcome read?
**A.** inactive

**Q.** Which results are given for Cc1cc(S(=O)(=O)N=C2N(Cc3ccccc3)CCN2Cc2ccccc2)c(S)cc1Cl?
**A.** EC50: > 200 µM; IC50: > 200 µM

**Q.** COc1ccc2c(c1)OC[C@H]1c3cc(O)c(O)cc3O[C@@H]21 was tested. Which outcome did it give?
**A.** inactive

**Q.** With COC(=O)c1nc2c(C)c(O)c(O)c([C@H](C)CCC=C(C)C)c2o1 as the molecule, how does the EC50 read?
**A.** > 200 µM

**Q.** And the IC50?
**A.** 13.5 µM

**Q.** Which outcome does the source give for Cc1nc2nc3n(c(=O)c2nc1C)CCS3 here?
**A.** inactive

**Q.** With CCOC(=O)c1[nH]c2nc(SC)nc(Nc3ccccc3Cl)c2c1N as the molecule, how does the EC50 read?
**A.** > 200 µM

**Q.** And the IC50?
**A.** 126 µM

**Q.** How did the EC50 turn out when Cc1c2ccccc2nc(CCl)[n+]1[O-] was run?
**A.** > 200 µM

**Q.** And the IC50?
**A.** 3.24 µM

**Q.** How did the EC50 turn out when CCCCCCCC1c2cc3[nH]c(cc4nc(cc5[nH]c(cc(n2)[C@@]1(C)CC(=O)N(C)C)c(C)c5CCC(=O)O)C(CCC(=O)O)=C4C)cc3C (stereo partly specified) was run?
**A.** > 200 µM

**Q.** What about the IC50 of the same molecule?
**A.** 7.59 µM

**Q.** Which results are given for O=C1C(=O)c2ccccc2C(O)=C1C(C1=C(O)c2ccccc2C(=O)C1=O)c1ccccc1?
**A.** EC50: > 200 µM; IC50: 20.9 µM

**Q.** COc1ccc(-c2cc(=O)c3c(OC)c(OC)c(OC)cc3o2)cc1 was tested. Which EC50 did it give?
**A.** > 129 µM

**Q.** And the IC50?
**A.** 41.7 µM

**Q.** Oc1ccc(SCc2cc(O)c(O)c(O)c2)cc1 was tested. Which EC50 did it give?
**A.** > 200 µM

**Q.** And the IC50?
**A.** 6.92 µM

**Q.** Clc1cccc(-c2sc(-c3ccsc3)cc2Cc2ccsc2)c1 was tested. Which outcome did it give?
**A.** inactive

**Q.** Which EC50 does the source give for OC(Cc1cnnc2ccccc12)C(Cl)(Cl)Cl (stereo unspecified) here?
**A.** > 200 µM

**Q.** And the IC50?
**A.** 70.8 µM

**Q.** C[C@H](CCC1=NCCN1)[C@H]1CC[C@H]2[C@@H]3CC[C@@H]4C[C@H](O)CC[C@]4(C)[C@H]3CC[C@]12C was tested. Which EC50 did it give?
**A.** > 100 µM

**Q.** And the IC50?
**A.** 13.8 µM

**Q.** Which results are given for CCCCCCCCCCCCCCCCCCOP(=O)(O)OCCC=C(c1cc(Cl)c(O)c(C(=O)O)c1)c1cc(Cl)c(O)c(C(=O)O)c1?
**A.** EC50: > 170 µM; IC50: 63.1 µM

**Q.** What does the source list for CC1(C)S[C@H](CN)N[C@H]1C(=O)OC(c1ccccc1)c1ccccc1?
**A.** EC50: > 200 µM; IC50: 60.3 µM

**Q.** What does the source list for COc1cccc(OC)c1OC(=O)Nc1ccccc1F?
**A.** EC50: > 200 µM; IC50: > 200 µM

**Q.** For CN(C)C(=S)NC(=S)Nc1ccc2ccccc2c1, which outcome is on record?
**A.** inactive

**Q.** COc1cc2c(cc1OC)C(Cc1ccc(OC)c(OC)c1Oc1ccccc1)N(C)CC2 (stereo unspecified) was tested. Which outcome did it give?
**A.** inactive

**Q.** With N=C(N)SCc1ccc(Cl)cc1Cl (tested in a mixture with another compound) as the molecule, how does the EC50 read?
**A.** > 100 µM

**Q.** What about the IC50 of the same molecule?
**A.** 60.3 µM
